Measurements from patent publication US8372808B2, “Suppression of glial fibrillary acidic protein” (Wisconsin Alumni Research Foundation, priority 2008, dated 2013).
Read-outs that look alike come from different tables or passages of the source.

How the values were obtained:
[1] = tested on: 2.2 kb human GFAP promoter; test: hGFAP promoter luciferase activity assay in 172.9 cells (primary astrocytes from dual luciferase transgenic mice); format: cell-based; conditions: for effect on GFAP promoter activity (luciferase expression driven by the hGFAP promoter): 172.9 cells, 3 days of treatment; for effect on GFAP promoter activity (luciferase expression driven by the hGFAP promoter) / reductions in luciferase activity: 0-20 μM; for % GFAP reductions, luciferace expression from hGFAP promoter: tertiary screen, 48 hr exposure, at the MTDcc; for reductions in luciferase activity: quaternary screen, 10 days of exposure
Method: Cell-based assays were performed as four different screens using enriched cortical primary astrocyte cultures developed from transgenic mice expressing both firefly and Renilla luciferase reporter genes were generated. Briefly, the'firefly luciferase was placed under the control of a 2.2 kb human GFAP promoter to monitor GFAP transcription, and the Renilla luciferase was placed under the control of a 0.5 kb human GAPDH (glyceraldehyde 3-phosphate dehydrogenase) promoter to monitor transcription of a housekeeping gene for signal normalization. See section B, below for more detail regarding the development of transgenic mouse strains. Cells used in the following examples (e.g., the cortical primary astrocyte cells termed “172.9 cells,” described below) were developed from the transgenic mice described in section B.
Briefly, the cortices from individual pups were freed of meninges and placed into DMEM (Gibco) without serum, mechanically disassociated into single cells, suspended in medium containing DMEM supplemented with 10% fetal bovine serum (FBS; Hyclone), 100 U/ml penicillin, 100 μg/ml streptomycin (Gibco), seeded into T25 flasks (one brain per flask), and maintained in a humidified 5% CO2 atmosphere at 37° C. […] Medium was changed every 3 days. At 14-16 days in vitro (DIV), the flasks were shaken overnight at 200 rpm to remove oligodendrocytes and microglia. […] The cells were then suspended in DMEM with 10% FBS and plated (“passage 2”) on either 35 mm dishes, […], or 96-well plates (Corning) as needed. Cells were grown for varying days in vitro (DIV) at passage 2 and then used for various experiments. Tissue culture dishes and plates were pre-coated with 100 μg/ml poly-L-lysine for 1 h in a humidified 5% CO2 atmosphere at 37° C., and then allowed to air dry. […] Cell density was measured with the Vi-CELL cell counter (Beckman Coulter) or hemocytometer by the trypan-blue exclusion method. For simplicity, cells are referred to as “172.9 cells.”
Briefly, 172.9 cells were plated on poly-L coated white 96-well plates at a density of 5000 cells per well, in 100 μl DMEM with 10% FBS. At twenty-four hours, cells were exposed to the different compounds at a final concentration of 10 μM (diluted from a 50 mM stock) prepared in new medium (DMEM with 10% FBS). […] After exposure to compounds, luciferase activity in the primary and secondary screenings was determined by adding 30 μl of Bright-Glo™ reagent (Promega) to the 100 μl of media and cells of each well in the white 96-well plates with the Biomek® FX liquid handler (Beckman Coulter). After incubation for 1 minute at room temperature, signals were measured with the Safire 2 plate reader using Magellan™ software (Tecan). Other specific methods and equipment are known in the art and can be used to measure luciferase expression levels. This assay method is termed the “hGFAP promoter luciferase activity assay.” A reduction in luciferase expression as determined by this assay is termed “hGFAP promoter luciferase reduction.” For some assays that were aimed at confirming results of the initial screens, the same amount of Bright-Glo™ reagent was applied to each well in 96-well plates and signals were detected with the GloRunner™ Microplate Luminometer (Turner Biosystems) using the Dual-Glo® luciferase assay according to the manufacturer's recommendations (E1910, Promega).
In the secondary screen, cells were plated in a 96-well plate as described above for the primary screen.
Some compounds were unavailable outside of the library collections, and could not be further tested.
Each compound and concentration was analyzed in quadruplicate wells.
(§1) Compounds were tested at eight different concentrations ranging from 0-20 μM. In addition, GFAP protein levels were measured using a sandwich ELISA, which has greater sensitivity and is more accurate than the cell-based ELISA used in the primary screens.

mGFAP protein [2] = test: GFAP protein levels by ELISA in 172.9 cells treated with betulinic acid derivatives; format: cell-based, mouse; conditions: 7 days of treatment, 0-20 μM
Method: FIG. 9A-D are graphs showing the effects of betulinic acid and betulinic acid derivatives on mGFAP protein levels in 172.9 cells after 7 days of treatment. In the graphs, ester and amide forms of various compounds are paired for comparison.
172.9 cells were used to test the effects of betulinic acid and betulinic acid derivatives on GFAP promoter activity and GFAP protein levels. Experiments were performed as previously described. Each of eight compounds (D-altroside (ester); D-altroside (amide); D-xyloside (ester); D-xyloside (amide); aglycon (ester); aglycon (amide); betulinic acid; 3-amino betulinic acid) was tested at a concentration of 0 μM, 0.1 μM, 0.5 μM, 1 μM, 5 μM, 10 μM, 15 μM, and 20 μM. […] Toxicity of the compounds was also evaluated.

172.9 cells = test: cell viability (CellTiter-Glo) / MTDcc in 172.9 cells
Method: Criterion for acceptable viability was >70% survival.
Cell viability was determined as follows. After exposure to each compound (duplicate wells per compound), 50 μl of CellTitier-Glo Luminescent Cell Viability Assay reagent (G7571, Promega) was added to the 100 μl of media present in each well, and the luminescent signal (reflecting intracellular ATP level) was detected with either a Victor 3-V plate reader (Perkin Elmer) or GloRunner Microplate Luminometer (Turner Biosystems). Cell viability was expressed as a percent of non-treated control cells.
A dose-response curve was created for each compound (0.1, 0.5, 1, 5, 10, 15, 20 μM) using 48 hr exposures. The MTDcc (“maximum tolerated dose—cell culture”) indicates the highest concentration that retained at least 70% cell viability. Each compound and concentration was analyzed in quadruplicate wells. EGCDG: epigallocatechin 3,5-digallate; NPPB: 5-nitro-2-phenylproplyaminobenzoic acid. As used herein, MTDcc refers to the MTD as determined by this assay under the above conditions.

mGFAP protein [3] = test: cell-based GFAP protein level assay (cell-based ELISA) in 172.9 cells; parameters: species or system mouse; conditions: for % GFAP reductions, mGFAP protein via ELISA: tertiary screen, 48 hr exposure, at the MTDcc
GFAP protein = test: sandwich ELISA for GFAP protein in 172.9 cells, quaternary screen; format: cell-based, mouse; conditions: 10 days of exposure, 0-20 μM
Method: as §1
The extracts were harvested from each well and the total GFAP content of each well was measured by a sandwich ELISA as described below. Briefly, separate microtiter plates were coated with SMI-26 anti-GFAP mouse monoclonal antibody cocktail (1:1000, Covance, diluted in PBS) overnight at 4° C., rinsed 3 times in PBS, and then blocked with Blotto (5% nonfat milk/PBS) for 2 h at RT. Samples from the astrocyte cell lysate (20 μl per well) were loaded onto the plates and brought up to 100 μl with 0.5% Triton X-100/PBS (a buffer used for subsequent antibody incubations and rinses), and incubated with a rabbit polyclonal anti-GFAP antibody (1:5000, DAKO) overnight at 4° C. The plates were rinsed three times and then incubated with HRP-conjugated goat anti-rabbit IgG (1:30,000, Sigma) for 2 h at RT. After three final rinses, peroxidase activity was detected using the Super Signal Femto maximum Sensitivity Substrate (Pierce) with a GloRunner microplate luminometer (Turner Biosystems). The GFAP content in the samples was determined from a standard curve generated using serial dilutions of purified GFAP (Research Diagnostics).

[4] = tertiary screen, 48 hr exposure, 0.1-20 μM, highest concentration that retained at least 70% cell viability
[5] = secondary screen, 10 μM, 48 hours

| Compound | effect on GFAP protein levels (mGFAP protein [2]) | MTDcc (172.9 cells; [4]) [µM] | % GFAP reductions, mGFAP protein via ELISA (mGFAP protein [3]) [%] | % GFAP reductions, luciferace expression from hGFAP promoter [1] [%] | other results |
| --- | --- | --- | --- | --- | --- |
| C=C(C)[C@@H]1CC[C@]2(C(=O)O)CC[C@]3(C)[C@H](CCC4[C@@]5(C)CC[C@H](OC(=O)CN(OC)[C@@H]6OC(CO)[C@@H](O)C(O)C6O)C(C)(C)C5CC[C@]43C)C12 (stereo partly drawn) [D-altroside (ester), (3S)—O—(N-Methoxy-N-β-D-altrosylglycyl)betulinic acid] | reduced GFAP protein levels more than the amide form |  |  |  | effect on GFAP promoter activity (luciferase expression driven by the hGFAP promoter) [1]: more dramatic decrease in GFAP promoter activity than the amide form |
| C=C(C)[C@@H]1CC[C@]2(C(=O)O)CC[C@]3(C)[C@H](CCC4[C@@]5(C)CC[C@H](OC(=O)CNOC)C(C)(C)C5CC[C@]43C)C12 (stereo partly drawn) [aglycon (ester), (3S)—O—(N-Methoxyglycyl)betulinic acid] | minimal effect |  |  |  | effect on GFAP promoter activity (luciferase expression driven by the hGFAP promoter) [1]: decreased luciferase expression |
| C=C(C)[C@@H]1CC[C@]2(C(=O)O)CC[C@]3(C)[C@H](CCC4[C@@]5(C)CC[C@H](N)C(C)(C)C5CC[C@]43C)C12 (stereo partly drawn) [3-amino betulinic acid, (3S)-Aminobetulinic acid] | reduced GFAP protein levels more than the ester form |  |  |  | effect on GFAP promoter activity (luciferase expression driven by the hGFAP promoter) [1]: decrease in GFAP promoter activity |
| methylnorlichexanthone |  | >20 | 0.6 | 10 |  |
| CN(C)CC/C=C1/c2ccccc2Sc2ccc(Cl)cc21 [chlorprothixene] |  |  | −3.6 | 60 | MTDcc (172.9 cells; mouse, 48 h): 17.5 µM |
| CC(C)(CO)[C@@H](O)C(=O)NCCC(=O)O [pantothenic acid] |  |  | −3.5 | 6 | MTDcc (172.9 cells; mouse, 48 h): >20 µM |
| O=C(Oc1cc(O)cc2c1C[C@@H](OC(=O)c1cc(O)c(O)c(O)c1)[C@@H](c1cc(O)c(O)c(O)c1)O2)c1cc(O)c(O)c(O)c1 [EGCDG, epigallocatechin 3,5-digallate] |  |  | 4.5 | 57 | MTDcc (172.9 cells): 17.5 µM; cell viability (172.9 cells): acceptable cell viability; suppression in the protein assay (mGFAP protein [3]; [5]): significant suppression; reductions in luciferase activity [1]: consistent reductions; suppression in the promoter assay [1, 5]: significant suppression; reductions in GFAP protein levels (GFAP protein): consistent reductions |
| O=C1CCCN1CC#CCN1CCCC1 [oxotremorine] |  | >20 | 2.7 | 16 |  |
| O=C(O)c1cc([N+](=O)[O-])ccc1NCCCc1ccccc1 [5-nitro-2-phenylproplyaminobenzoic acid] |  | >20 | 0.4 | 16 |  |
| Cc1cc(O)c2c(c1)C(=O)c1cccc(O)c1C2=O [chrysophanol] |  | 12.5 | 18.6 | 66 |  |
| C=C(C)[C@@H]1CC[C@]2(C(=O)O)CC[C@]3(C)[C@H](CCC4[C@@]5(C)CC[C@H](NC(=O)CNOC)C(C)(C)C5CC[C@]43C)C12 (stereo partly drawn) [aglycon (amide), (3S)—N—(N′-Methoxyglycyl)aminobetulinic acid] | reduced GFAP protein levels more than the ester form |  |  |  |  |
| CN(C)CCC=C1c2ccccc2CCc2ccccc21 [amitriptyline] |  |  | 12.2 | 63 | cell viability (172.9 cells): acceptable cell viability; MTDcc (172.9 cells; mouse, 48 h): >20 µM; reductions in luciferase activity [1]: consistent reductions; reductions in GFAP protein levels (GFAP protein): consistent reductions |
| C=C(C)[C@@H]1CC[C@]2(C(=O)O)CC[C@]3(C)[C@H](CCC4[C@@]5(C)CC[C@H](OC(=O)CN(OC)[C@@H]6OC[C@@H](O)C(O)C6O)C(C)(C)C5CC[C@]43C)C12 (stereo partly drawn) [D-xyloside (ester), (3S)—O—(N-Methoxy-N-β-D-xylosylglycyl)betulinic acid] | reduced GFAP protein levels more than the amide form |  |  |  | effect on GFAP promoter activity (luciferase expression driven by the hGFAP promoter) [1]: more dramatic decrease in GFAP promoter activity than the amide form |
| CCCCC(CC)CN1CN(CC(CC)CCCC)CC(C)(N)C1 (centres unmarked) [hexetidine] |  |  | 6.4 | 26 | MTDcc (172.9 cells; mouse, 48 h): >20 µM |
| COc1ccc(C(=O)O)cc1OC [veratic acid] |  | >20 | −0.8 | 6 |  |
